Patent publication US8940936B2, “Aryloxy phenoxy acrylic compound having HIF-1 inhibition activity, method for preparing same, and pharmaceutical composition containing same as an active ingredient” (Korea Research Institute of Bioscience and Biotechnology, priority 2010, dated 2015)
Values joined by “and” are separate entries in the source; they are usually repeats but may differ in a detail not shown here. Equal entries are not always repeated. Each block holds one compound with its values, some of them ahead of it.

Legend:
[1] = system: B16F10 melanoma cell line; assay: Cancer metastasis inhibition activity, B16F10 melanoma lung colonies in C57BL mice; format: in vivo, mouse; conditions: Example 1 20 mg/kg/day, topotecan 2 mg/kg/2 day; for Metastasis colony number: day 12, ip; for Metastasis inhibition rate (%): day 12, vs control
Procedure: (§1) Particularly, the experimental group composed of 6 female mice (C57BL) at 6 weeks was transplanted with B16F10 melanoma cell line. After the cancer cells were grown, the mice were treated with the compound of formula 1 via intraperitoneal injection at the dose of […] every day for 12 days. Inhibition of angiogenesis and the tumor growth were observed. In the meantime, the control group was treated with purified water every day. The comparative group was treated with topotecan at the dose of 2 mg/kg once every other day. Weight changes and cancer metastasis were measured and the results are shown in Table 9, Table 10, and FIG. 10.
As shown in Table 10 and FIG. 10, the mice were sacrificed on the last day of experiment (day 12) and then cancer colonies in lung were counted by the naked eye.

[2] = Mouse weight changes and symptoms, repeated intravenous administration (Caki-1 model); format: in vivo; conditions: for Mouse weight changes (%): iv, Example 1 20 mg/kg/day, topotecan 2 mg/kg/day
Procedure: (§2) Female nude mice at 6 weeks (BALB/c nu/nu, Charles River) were raised in a germ-free facility where temperature and humidity were maintained at proper levels during the whole experimental period. After anesthetizing each mouse, the human kidney cancer cell line Caki-1 was transplanted in kidney tissues at the density of 4×10^7 cells/mouse, and then the opened kidney was sealed with surgical clips. After transplanting the kidney cancer cell line, the tumor volume was measured with calipers. When the tumor volume reached 52.7 mm^3, the compound of the present invention prepared in example 1 was treated thereto. Particularly, for the experimental group, the compound of example 1 was dissolved in the solvent composed of cremophor (10%), DMAC (10%), and pH 10 buffer […], which is indicated as ‘solvent B’ hereinafter, at the concentration of 20 mg/kg. The prepared compound solution was intravenously administered to the experimental group mice once a day at the dose of […]. The control was treated with the solvent B only without the compound once a day via oral administration at the dose of 15 ml/kg. The comparative group was treated with the solvent B containing topotecan (2 mg/kg) via intravenous injection once a day at the dose of 15 ml/kg. The weight and the tumor volume were measured once a day on day 0, 2, 4, 7, 9, 11, and 14.
(§3) Tumor volume was calculated by the mathematical formula 1 of Experimental Example 4. To investigate the toxicity according to the repeated intravenous administration of the compound of example 1, mouse weight changes were observed and presented in Table 5. Inhibition rate (%) in Table 6 was calculated by the mathematical formula 2, which indicates the inhibition of tumor growth by the compound presented by %.

[3] = Mouse weight changes and symptoms, intraperitoneal administration (B16F10 metastasis experiment); format: in vivo; conditions: for Mouse weight changes (%): ip, Example 1 20 mg/kg/day, topotecan 2 mg/kg/2 day
Procedure: as §1

[4] = Mouse weight changes and symptoms, intraperitoneal administration (B16F10 angiogenesis experiment); format: in vivo; conditions: for Mouse weight changes (%): ip, Example 1 20 mg/kg/day, topotecan 2 mg/kg/2 day
Procedure: (§4) Particularly, the experimental group composed of 5 female mice (C57BL) at 6 weeks was transplanted with B16F10 melanoma cell line. After the cancer cells were grown, the mice were treated with the compound of formula 1 via intraperitoneal injection at the dose of […] for 5 days. Inhibition of angiogenesis and the tumor growth were observed. In the meantime, the control group was treated with the mixed solution comprising 10% DMAC, 10% cremophor and 80% buffer (pH 10) every day. The comparative group was treated with topotecan at the dose of 2 mg/kg once every other day. Weight changes and the newly generated blood vessels were measured and the results are shown in Table 7, Table 8, FIG. 7, and FIG. 8. The tumor volume shown in Table 8 was calculated by the mathematical formula 1 of experimental example 4 and the inhibition rate was calculated by the mathematical formula 2 of experimental example 4.

[5] = system: B16F10 melanoma cell line; assay: Tumor growth, B16F10 melanoma in C57BL mice, intraperitoneal administration; format: in vivo, mouse; conditions: Example 1 20 mg/kg/day, topotecan 2 mg/kg/2 day; for Tumor volume changes (mm^3): ip; for Inhibition rate (%) of tumor volume: vs control
Procedure: as §4

[6] = system: human kidney cancer cell line Caki-1; assay: In vivo anticancer activity, intravenous injection 2, Caki-1 kidney cancer in nude mice; parameters: species or system mouse; conditions: Example 1 20 mg/kg/day, topotecan 2 mg/kg/day; for Tumor volume (mm^3) / Tumor weight: iv; for Inhibition rate (%) of tumor volume / Inhibition rate (%) of tumor weight: vs control; for Tumor weight: day 14 (final day)
Procedure: To evaluate the inhibition effect of the compound prepared in example 1 administered via intravenous injection on the growth of kidney cancer, in vivo anticancer activity in mouse was measured. Particularly, nude-mice were grouped for experimental and control groups (5 mice per group). Changes in body weight, tumor volume, and tumor weight were measured to evaluate in vivo anticancer activity.
as §2, §3

Mouse weight changes (%) ([2]; day 0): 100.0 ± 0.0%
Mouse weight changes (%) ([2]; day 2): 104.7 ± 1.9%
Mouse weight changes (%) ([2]; day 4): 103.8 ± 3.8%
Mouse weight changes (%) ([2]; day 7): 103.4 ± 2.6%
Mouse weight changes (%) ([2]; day 9): 101.8 ± 3.6%
Mouse weight changes (%) ([2]; day 11): 103.0 ± 3.6%
Mouse weight changes (%) ([2]; day 14): 102.9 ± 5.3%
Mouse weight changes (%) ([3]; day 0): 100.0 ± 0.0%
Mouse weight changes (%) ([3]; day 2): 101.0 ± 2.9%
Mouse weight changes (%) ([3]; day 5): 103.5 ± 6.1%
Mouse weight changes (%) ([3]; day 7): 104.0 ± 4.6%
Mouse weight changes (%) ([3]; day 9): 104.3 ± 6.2%
Mouse weight changes (%) ([3]; day 12): 103.7 ± 5.5%
Mouse weight changes (%) ([4]; day 0): 100.0 ± 0.0%
Mouse weight changes (%) ([4]; day 2): 101.2 ± 0.6%
Mouse weight changes (%) ([4]; day 5): 103.7 ± 1.4%
Compound: CC[C@@]1(O)C(=O)OCc2c1cc1n(c2=O)Cc2cc3c(CN(C)C)c(O)ccc3nc2-1 [topotecan, reference compound]
Metastasis colony number [1]: 148.3 ± 49.4
Metastasis inhibition rate (%) [1]: 51.7%
Tumor volume changes (mm^3) ([5]; day 0): 0.0 ± 0.0 mm^3
Tumor volume changes (mm^3) ([5]; day 3): 20.9 ± 2.6 mm^3
Inhibition rate (%) of tumor volume ([5]; day 3): 37.4%
Tumor volume changes (mm^3) ([5]; day 4): 27.1 ± 2.3 mm^3
Inhibition rate (%) of tumor volume ([5]; day 4): 42.4%
Tumor volume changes (mm^3) ([5]; day 5): 42.9 ± 4.5 mm^3
Inhibition rate (%) of tumor volume ([5]; day 5): 45.4%
Tumor volume (mm^3) ([6]; day 0): 0.0 ± 0.0 mm^3
Tumor volume (mm^3) ([6]; day 2): 16.7 ± 2.3 mm^3
Inhibition rate (%) of tumor volume ([6]; day 2): 20.1%
Tumor volume (mm^3) ([6]; day 4): 38.7 ± 4.8 mm^3
Inhibition rate (%) of tumor volume ([6]; day 4): 26.6%
Tumor volume (mm^3) ([6]; day 7): 67.8 ± 8.6 mm^3
Inhibition rate (%) of tumor volume ([6]; day 7): 33.8%
Tumor volume (mm^3) ([6]; day 9): 88.5 ± 19.6 mm^3
Inhibition rate (%) of tumor volume ([6]; day 9): 40.6%
Tumor volume (mm^3) ([6]; day 11): 120.9 ± 36.0 mm^3
Inhibition rate (%) of tumor volume ([6]; day 11): 40.9%
Tumor weight [6]: 472.4 ± 137.6 mg
Tumor volume (mm^3) ([6]; day 14): 156.9 ± 51.3 mm^3
Inhibition rate (%) of tumor volume ([6]; day 14): 45.8%
Inhibition rate (%) of tumor weight ([6]; day 14): 48.0%

symptoms during repeated intravenous administration ([2]; 20 mg/kg iv, nude mice): no specific symptom was observed
Mouse weight changes (%) ([2]; day 0): 100.0 ± 0.0%
Mouse weight changes (%) ([2]; day 2): 104.7 ± 1.7%
Mouse weight changes (%) ([2]; day 4): 105.3 ± 2.2%
Mouse weight changes (%) ([2]; day 7): 105.5 ± 3.1%
Mouse weight changes (%) ([2]; day 9): 106.6 ± 4.9%
Mouse weight changes (%) ([2]; day 11): 107.3 ± 6.8%
Mouse weight changes (%) ([2]; day 14): 109.5 ± 6.4%
symptoms during repeated intraperitoneal injection ([3]; 20 mg/kg ip, C57BL mice, 12 days): no specific symptom was observed
Mouse weight changes (%) ([3]; day 0): 100.0 ± 0.0%
Mouse weight changes (%) ([3]; day 2): 98.7 ± 3.4%
Mouse weight changes (%) ([3]; day 5): 101.2 ± 4.6%
Mouse weight changes (%) ([3]; day 7): 103.4 ± 3.8%
Mouse weight changes (%) ([3]; day 9): 107.6 ± 2.8%
Mouse weight changes (%) ([3]; day 12): 107.6 ± 3.3%
symptoms during repeated intraperitoneal injection ([4]; 20 mg/kg ip, C57BL mice, 5 days): no specific symptom was observed
Mouse weight changes (%) ([4]; day 0): 100.0 ± 0.0%
Mouse weight changes (%) ([4]; day 2): 102.6 ± 1.6%
Mouse weight changes (%) ([4]; day 5): 107.6 ± 3.9%
Compound: COC(=O)c1cccc(NC(=O)/C=C/Oc2ccc(C34CC5CC(CC(C5)C3)C4)cc2)c1 [Example 1, (E)-3-[3-(4-Adamantan-1-yl-phenoxy)-acryloylamino]-benzoic acid methyl ester]
Metastasis colony number [1]: 207 and 207.0 ± 47.5
Metastasis inhibition rate (%) [1]: 32.5%
body weight on the final day of observation (day 14) compared with control ([2]; 20 mg/kg iv, nude mice): not significantly reduced
body weight on the final day of observation (day 12) compared with control ([3]; 20 mg/kg ip, C57BL mice): not significantly reduced
body weight on the final day of observation (day 5) compared with control ([4]; 20 mg/kg ip, C57BL mice): not significantly reduced
Tumor volume changes (mm^3) ([5]; day 0): 0.0 ± 0.0 mm^3
Tumor volume changes (mm^3) ([5]; day 3): 26.8 ± 3.6 mm^3
Inhibition rate (%) of tumor volume ([5]; day 3): 19.7%
Tumor volume changes (mm^3) ([5]; day 4): 36.4 ± 4.8 mm^3
Inhibition rate (%) of tumor volume ([5]; day 4): 22.5%
Tumor volume changes (mm^3) ([5]; day 5): 55.8 ± 5.8 mm^3
Inhibition rate (%) of tumor volume ([5]; day 5): 28.9%
Tumor volume (mm^3) ([6]; day 0): 0.0 ± 0.0 mm^3
Tumor volume (mm^3) ([6]; day 2): 17.1 ± 2.0 mm^3
Inhibition rate (%) of tumor volume ([6]; day 2): 18.4%
Tumor volume (mm^3) ([6]; day 4): 41.4 ± 13.5 mm^3
Inhibition rate (%) of tumor volume ([6]; day 4): 21.6%
Tumor volume (mm^3) ([6]; day 7): 77.6 ± 11.8 mm^3
Inhibition rate (%) of tumor volume ([6]; day 7): 24.2%
Tumor volume (mm^3) ([6]; day 9): 107.0 ± 18.5 mm^3
Inhibition rate (%) of tumor volume ([6]; day 9): 28.2%
Tumor volume (mm^3) ([6]; day 11): 141.9 ± 14.8 mm^3
Inhibition rate (%) of tumor volume ([6]; day 11): 30.6%
Tumor weight [6]: 640.0 ± 61.8 mg
Tumor volume (mm^3) ([6]; day 14): 200.2 ± 34.2 mm^3
Inhibition rate (%) of tumor volume ([6]; day 14): 30% and 30.9%
Inhibition rate (%) of tumor weight ([6]; day 14): 29.6%
